Here are results for six compounds from ChEMBL document CHEMBL1127764, “An efficient method for the synthesis of guanidino prodrugs” (Bioorg Med Chem Lett, 1994).

Structures are written as SMILES.

The nature of series [1]: Half-life in vitro in rat plasma. The series is classed as ADME.
In the next series the test system is Caco-2. Nature of the series: Permeability coefficient in Caco-2 cell line monolayers was tested. The series is classed as functional, Homo sapiens.
A short description of series [2]: Half-life in vitro in pig liver. The series is classed as ADME, tissue-based, Sus scrofa.
The species named for a further series is Rattus norvegicus. Nature of the series: Half-life in vitro in rat plasma; No detectable degradation over 2 hr; no detectable degradation over 2 hours. The series is classed as ADME.

In general, half-life refers to the time needed for the level to fall by half in the phase considered. Lower therefore signals fast loss. In series [1], `O=C(Cc1ccccc1)OCOC(=O)/N=C(/NCc1ccccc1)NC(=O)OCOC(=O)Cc1ccccc1` yielded a half-life of 0.13 min. Moreover, the Pc in the series with Caco-2 was 8.55 ×10⁻⁶ cm/s.

As for `NC(=O)CCCCCCN=C(N)N`, the half-life in series [2] is < 5 min.

The compound `O=C(/N=C(/NCc1ccccc1)NC(=O)Oc1ccccc1)Oc1ccccc1` displayed a half-life in series [1] of 0.46 min. In the series on Caco-2, this compound came in with a Pc of 6.45 ×10⁻⁶ cm/s.

In the case of `O=C(/N=C(/NCc1ccccc1)NC(=O)OCc1ccccc1)OCc1ccccc1`, in series [1], the half-life came to 12.5 min. The same compound had a Pc with Caco-2 of 0.51 ×10⁻⁶ cm/s.

Take `N=C(N)NCc1ccccc1`: in the series listed under Rattus norvegicus, the T1/2 result is reported as “Stable”. Further, the Pc in the series on Caco-2 came to 2.24 ×10⁻⁶ cm/s.

As for `CC(C)(C)C(=O)OCOC(=O)/N=C(/NCc1ccccc1)NC(=O)OCOC(=O)C(C)(C)C`, in series [1], the half-life was 1.12 min. The compound also displayed a Pc with Caco-2 of 3.69 ×10⁻⁶ cm/s.
